pIC50: −log10 of the molar value. Where two headings read alike, the source gives them in different places.
How the values were obtained:
[1] = test system: thyroid cancer cell line (TT); test: Tumor cell proliferation inhibition (CTG, 72 h); assay type: cell-based; conditions: TT cells, class, read-out: TT range of activity (IC50)
[2] = test system: cervical cancer cell line (Hela); test: Tumor cell proliferation inhibition (CTG, 72 h); assay type: cell-based; conditions: Hela cells, class, read-out: Hela activity effect range (IC50)
FGFR2 = FGFR2 (Homo sapiens (Human), UniProt P21802); test: Kinase inhibition, Mobility-Shift Assay; assay type: biochemical; conditions: class; read-out: FGFR2 range of activity effects (IC50)
[3] = test system: leukemia cell line (K562); test: Tumor cell proliferation inhibition (CTG, 72 h); assay type: cell-based; conditions: K562 cells, class, read-out: K562 activity effect range (IC50)
EGFR = EGFR (Homo sapiens (Human), UniProt P00533); test: Kinase inhibition, Mobility-Shift Assay; assay type: biochemical; conditions: class; read-out: EGFR range of activity (IC50)
[4] = test system: hepatocellular carcinoma cell line (Hep3B 2.1-7); test: Tumor cell proliferation inhibition (CTG, 72 h); assay type: cell-based; conditions: Hep3B 2.1-7 cells, class, read-out: Hep3B 2.1-7 range of activity (IC50)
[5] = test system: bladder cancer cell line (RT112/84); test: Tumor cell proliferation inhibition (CTG, 72 h); assay type: cell-based; conditions: RT112/84 cells, class, read-out: RT112/84 range of activity (IC50)
C-MET = C-MET (Homo sapiens (Human), UniProt P08581); test: Kinase inhibition, Mobility-Shift Assay; assay type: biochemical; conditions: class; read-out: C-MET range of activity (IC50)
VEGFR-2 (KDR) = VEGFR-2 (KDR) (Homo sapiens (Human), UniProt P35968); test: Kinase inhibition, Mobility-Shift Assay; assay type: biochemical; conditions: class; read-out: KDR activity effect range (IC50)
FGFR4 = FGFR4 (Homo sapiens (Human), UniProt P22455); test: Kinase inhibition, Mobility-Shift Assay; assay type: biochemical; conditions: class; read-out: FGFR4 range of activity effects (IC50)
Chain of FGFR4 (P22455 22-802): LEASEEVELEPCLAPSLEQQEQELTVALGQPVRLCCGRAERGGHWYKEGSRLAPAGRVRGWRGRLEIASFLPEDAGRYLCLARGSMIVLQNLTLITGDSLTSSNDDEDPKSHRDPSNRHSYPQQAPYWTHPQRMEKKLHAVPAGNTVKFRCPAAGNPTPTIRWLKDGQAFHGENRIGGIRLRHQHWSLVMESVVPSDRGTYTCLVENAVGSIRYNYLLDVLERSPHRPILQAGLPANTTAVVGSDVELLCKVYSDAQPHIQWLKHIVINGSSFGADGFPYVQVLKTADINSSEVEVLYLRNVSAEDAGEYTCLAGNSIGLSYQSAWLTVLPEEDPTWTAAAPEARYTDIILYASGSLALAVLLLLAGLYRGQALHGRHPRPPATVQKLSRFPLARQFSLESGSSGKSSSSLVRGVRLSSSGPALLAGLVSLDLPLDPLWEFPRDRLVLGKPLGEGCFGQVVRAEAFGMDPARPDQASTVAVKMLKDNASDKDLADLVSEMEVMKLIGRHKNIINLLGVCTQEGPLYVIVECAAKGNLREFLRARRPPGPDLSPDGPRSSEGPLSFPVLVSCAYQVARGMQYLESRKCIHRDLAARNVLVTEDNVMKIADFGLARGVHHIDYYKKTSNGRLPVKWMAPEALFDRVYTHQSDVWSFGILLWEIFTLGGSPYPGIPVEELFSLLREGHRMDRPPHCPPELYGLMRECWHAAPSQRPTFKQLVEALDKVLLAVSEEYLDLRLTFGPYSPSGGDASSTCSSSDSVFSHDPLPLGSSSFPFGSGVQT

Chain of EGFR (P00533 25-1210): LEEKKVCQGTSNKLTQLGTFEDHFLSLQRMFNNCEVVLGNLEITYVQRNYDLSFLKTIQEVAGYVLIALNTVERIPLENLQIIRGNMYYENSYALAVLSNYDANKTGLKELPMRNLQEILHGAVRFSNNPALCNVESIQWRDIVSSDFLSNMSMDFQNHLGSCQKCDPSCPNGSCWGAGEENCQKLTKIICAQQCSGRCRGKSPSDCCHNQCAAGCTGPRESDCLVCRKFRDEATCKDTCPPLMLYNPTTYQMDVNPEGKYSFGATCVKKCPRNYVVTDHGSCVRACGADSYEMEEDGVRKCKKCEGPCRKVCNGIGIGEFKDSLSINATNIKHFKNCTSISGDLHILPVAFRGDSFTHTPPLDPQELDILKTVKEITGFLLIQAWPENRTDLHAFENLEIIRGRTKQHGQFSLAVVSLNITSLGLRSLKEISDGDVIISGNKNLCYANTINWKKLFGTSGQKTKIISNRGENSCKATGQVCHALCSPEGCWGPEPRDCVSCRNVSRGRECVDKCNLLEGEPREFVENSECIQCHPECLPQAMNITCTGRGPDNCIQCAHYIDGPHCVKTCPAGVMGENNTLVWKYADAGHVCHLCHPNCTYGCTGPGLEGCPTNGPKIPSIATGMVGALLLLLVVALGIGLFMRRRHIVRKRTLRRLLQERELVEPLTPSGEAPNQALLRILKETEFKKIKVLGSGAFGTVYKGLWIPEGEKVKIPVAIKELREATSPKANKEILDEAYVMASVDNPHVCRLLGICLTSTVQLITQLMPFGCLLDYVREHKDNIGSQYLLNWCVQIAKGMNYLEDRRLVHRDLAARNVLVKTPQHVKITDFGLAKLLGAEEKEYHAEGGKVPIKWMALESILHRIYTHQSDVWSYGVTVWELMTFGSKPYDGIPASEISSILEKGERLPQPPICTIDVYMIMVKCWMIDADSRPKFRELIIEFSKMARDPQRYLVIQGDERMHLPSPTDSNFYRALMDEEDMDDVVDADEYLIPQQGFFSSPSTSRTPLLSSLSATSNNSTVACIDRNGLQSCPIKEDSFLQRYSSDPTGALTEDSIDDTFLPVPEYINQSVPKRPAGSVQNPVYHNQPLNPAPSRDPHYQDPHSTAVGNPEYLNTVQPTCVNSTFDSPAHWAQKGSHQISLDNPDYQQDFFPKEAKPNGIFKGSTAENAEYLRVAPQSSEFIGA
Chain of FGFR2 (P21802 22-821): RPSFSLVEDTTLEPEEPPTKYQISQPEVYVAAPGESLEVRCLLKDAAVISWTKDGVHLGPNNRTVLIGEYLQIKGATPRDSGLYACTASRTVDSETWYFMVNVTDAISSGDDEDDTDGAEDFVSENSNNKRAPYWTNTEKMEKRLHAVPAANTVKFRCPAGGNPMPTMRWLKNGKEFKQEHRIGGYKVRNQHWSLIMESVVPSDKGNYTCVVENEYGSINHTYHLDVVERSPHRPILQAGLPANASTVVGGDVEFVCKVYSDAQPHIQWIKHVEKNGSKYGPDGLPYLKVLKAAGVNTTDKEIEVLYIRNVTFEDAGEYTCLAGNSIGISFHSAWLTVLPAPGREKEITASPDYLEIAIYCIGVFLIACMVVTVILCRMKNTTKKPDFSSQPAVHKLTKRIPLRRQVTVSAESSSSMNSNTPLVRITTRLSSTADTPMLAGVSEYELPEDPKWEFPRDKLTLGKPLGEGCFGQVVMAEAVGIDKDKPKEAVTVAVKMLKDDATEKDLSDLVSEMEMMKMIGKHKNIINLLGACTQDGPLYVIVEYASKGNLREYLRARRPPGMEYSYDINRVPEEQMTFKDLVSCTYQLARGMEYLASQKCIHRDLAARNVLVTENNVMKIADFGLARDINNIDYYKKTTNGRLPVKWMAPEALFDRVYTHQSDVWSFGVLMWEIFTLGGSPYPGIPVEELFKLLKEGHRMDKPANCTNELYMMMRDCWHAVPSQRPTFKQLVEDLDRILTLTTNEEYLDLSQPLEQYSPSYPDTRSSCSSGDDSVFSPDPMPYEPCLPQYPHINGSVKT
Chain of VEGFR-2 (KDR) (P35968 20-1356): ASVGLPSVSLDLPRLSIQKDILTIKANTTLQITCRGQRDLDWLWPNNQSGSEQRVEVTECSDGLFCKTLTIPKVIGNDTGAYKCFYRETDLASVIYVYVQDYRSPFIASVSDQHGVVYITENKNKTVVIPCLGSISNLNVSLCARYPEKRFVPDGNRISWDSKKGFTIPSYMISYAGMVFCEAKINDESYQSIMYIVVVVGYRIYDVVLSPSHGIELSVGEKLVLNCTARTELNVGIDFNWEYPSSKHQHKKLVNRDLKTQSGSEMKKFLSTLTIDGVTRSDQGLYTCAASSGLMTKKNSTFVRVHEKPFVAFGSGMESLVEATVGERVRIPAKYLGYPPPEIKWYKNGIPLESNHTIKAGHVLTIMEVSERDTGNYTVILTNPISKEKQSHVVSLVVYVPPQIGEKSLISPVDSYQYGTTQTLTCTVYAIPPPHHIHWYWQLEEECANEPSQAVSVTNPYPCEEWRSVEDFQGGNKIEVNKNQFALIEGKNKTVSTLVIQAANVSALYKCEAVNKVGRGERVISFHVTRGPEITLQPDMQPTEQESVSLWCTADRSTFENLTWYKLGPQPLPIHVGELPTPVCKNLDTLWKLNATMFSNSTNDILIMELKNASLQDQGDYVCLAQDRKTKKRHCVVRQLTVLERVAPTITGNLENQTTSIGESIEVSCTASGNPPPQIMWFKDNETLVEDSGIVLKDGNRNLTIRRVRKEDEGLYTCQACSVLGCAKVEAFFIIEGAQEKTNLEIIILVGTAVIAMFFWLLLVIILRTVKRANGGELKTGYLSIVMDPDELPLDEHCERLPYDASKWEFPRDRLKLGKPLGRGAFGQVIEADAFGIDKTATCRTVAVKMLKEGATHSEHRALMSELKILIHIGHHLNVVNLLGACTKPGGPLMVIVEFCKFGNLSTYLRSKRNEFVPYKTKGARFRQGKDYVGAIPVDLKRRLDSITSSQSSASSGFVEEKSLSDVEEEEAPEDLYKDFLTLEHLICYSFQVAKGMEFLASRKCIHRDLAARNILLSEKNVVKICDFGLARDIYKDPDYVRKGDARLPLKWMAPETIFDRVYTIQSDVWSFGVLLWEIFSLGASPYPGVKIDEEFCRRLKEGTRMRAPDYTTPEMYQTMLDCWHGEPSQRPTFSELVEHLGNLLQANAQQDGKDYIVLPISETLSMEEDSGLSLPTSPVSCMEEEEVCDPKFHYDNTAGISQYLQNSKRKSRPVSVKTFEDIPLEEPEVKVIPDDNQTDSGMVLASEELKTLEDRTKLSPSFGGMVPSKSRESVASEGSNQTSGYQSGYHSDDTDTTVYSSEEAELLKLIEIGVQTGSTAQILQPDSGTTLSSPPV

Row | SMILES | pIC50 ([1]; Homo sapiens) | pIC50 ([2]; Homo sapiens) | pIC50 (FGFR2) | pIC50 ([3]; Homo sapiens) | pIC50 (EGFR) | pIC50 ([4]; Homo sapiens) | pIC50 ([5]; Homo sapiens) | pIC50 (C-MET) | pIC50 (VEGFR-2 (KDR)) | pIC50 (FGFR4) | pIC50 [1] | pIC50 [2] | pIC50 [3] | pIC50 [4] | pIC50 [5]
1 | COc1cc2nccc(Oc3c(F)cc(NC(=O)NC4CC4(F)F)c(F)c3F)c2cc1C(N)=O (stereo not shown) [III-23] | < 5.00 | < 5.00 | < 7.00 | < 5.00 | < 7.00 | < 5.30 | < 6.00 | < 7.00 | < 8.00 | < 7.00 |  |  |  |  | 
2 | COc1cc2nccc(Oc3c(F)cc(NC(=O)NC4CC4(F)F)c(Cl)c3F)c2cc1C(N)=O (stereo not shown) [III-24] | < 5.00 | < 5.00 | < 7.00 | < 5.00 | < 7.00 | < 5.30 | < 6.00 | < 7.00 | < 8.00 | < 7.00 |  |  |  |  | 
3 | COc1cc2nccc(Oc3c(F)cc(NC(=O)NCC4CC4)c(Cl)c3F)c2cc1C(N)=O [III-25] | < 5.00 | < 5.00 | < 7.00 | < 5.00 | < 7.00 | < 5.30 | < 6.00 | < 7.00 | < 8.00 | < 7.00 |  |  |  |  | 
4 | COc1cc2nccc(Oc3c(F)cc(NC(=O)NC4CCC4)c(Cl)c3F)c2cc1C(N)=O [III-26] | < 5.00 | < 5.00 | < 7.00 | < 5.00 | < 7.00 | < 5.30 | < 6.00 | < 7.00 | < 8.00 | < 7.00 |  |  |  |  | 
5 | COc1cc2nccc(Oc3c(F)cc(NC(=O)NC4COC4)c(Cl)c3F)c2cc1C(N)=O [III-27] | < 5.00 | < 5.00 | < 7.00 | < 5.00 | < 7.00 | < 5.30 | < 6.00 | < 7.00 | < 8.00 | < 7.00 |  |  |  |  | 
6 | COc1cc2nccc(Oc3c(F)cc(NC(=O)NC4CCOCC4)c(Cl)c3F)c2cc1C(N)=O [III-28] | < 5.00 | < 5.00 | < 7.00 | < 5.00 | < 7.00 | < 5.30 | < 6.00 | < 7.00 | < 8.00 | < 7.00 |  |  |  |  | 
7 | COc1cc2nccc(Oc3c(F)cc(NC(=O)NC4CC(O)C4)c(Cl)c3F)c2cc1C(N)=O (stereo not shown) [III-29] | < 5.00 | < 5.00 | < 7.00 | < 5.00 | < 7.00 | < 5.30 | < 6.00 | < 7.00 | < 8.00 | < 7.00 |  |  |  |  | 
8 | COc1cc2nccc(Oc3c(F)cc(NC(=O)NC4CC(O)C4)c(Cl)c3F)c2cc1C(N)=O (stereo not shown) [III-30] |  |  | < 7.00 |  | < 7.00 |  |  | < 7.00 | < 8.00 | < 7.00 | < 5.00 | < 5.00 | < 5.00 | < 5.30 | < 6.00
9 | COc1cc2nccc(Oc3c(F)cc(NC(=O)N4CC[C@H](O)C4)c(Cl)c3F)c2cc1C(N)=O [III-31] | < 5.00 | < 5.00 | < 7.00 | < 5.00 | < 7.00 | < 5.30 | < 6.00 | < 7.00 | < 8.00 | < 7.00 |  |  |  |  | 
10 | COc1cc2nccc(Oc3c(F)cc(NC(=O)N4CC[C@@H](O)C4)c(Cl)c3F)c2cc1C(N)=O [III-32] | < 5.00 | < 5.00 | < 7.00 | < 5.00 | < 7.00 | < 5.30 | < 6.00 | < 7.00 | < 8.00 | < 7.00 |  |  |  |  | 
11 | COc1cc2nccc(Oc3c(F)cc(NC(=O)N4CCN(C)CC4)c(Cl)c3F)c2cc1C(N)=O [III-33] | < 5.00 | < 5.00 | < 7.00 | < 5.00 | < 7.00 | < 5.30 | < 6.00 | < 7.00 | < 8.00 | < 7.00 |  |  |  |  | 

Other lines, results leading:

Row | pIC50 ([1]; Homo sapiens) | pIC50 ([2]; Homo sapiens) | pIC50 (FGFR2) | pIC50 ([3]; Homo sapiens) | pIC50 (EGFR) | pIC50 ([4]; Homo sapiens) | pIC50 ([5]; Homo sapiens) | pIC50 (C-MET) | pIC50 (VEGFR-2 (KDR)) | pIC50 (FGFR4) | pIC50 [1] | pIC50 [2] | pIC50 [3] | pIC50 [4] | pIC50 [5] | SMILES
12 | < 5.00 | < 5.00 | < 7.00 | < 5.00 | < 7.00 | < 5.30 | < 6.00 | < 7.00 | < 8.00 | < 7.00 |  |  |  |  |  | COc1cc2nccc(Oc3c(F)cc(NC(=O)NC(C)C)c(Cl)c3F)c2cc1C(N)=O [III-34]
13 | < 5.00 | < 5.00 | < 7.00 | < 5.00 | < 7.00 | < 5.30 | < 6.00 | < 7.00 | < 8.00 | < 7.00 |  |  |  |  |  | COc1cc2nccc(Oc3c(Cl)cc(NC(=O)NC4CC4)c(F)c3F)c2cc1C(N)=O [III-35]
14 | < 5.00 | < 5.00 | < 7.00 | < 5.00 | < 7.00 | < 5.30 | < 6.00 | < 7.00 | < 8.00 | < 7.00 |  |  |  |  |  | COc1cc2nccc(Oc3c(F)c(F)c(NC(=O)NC4CC4)c(F)c3F)c2cc1C(N)=O [III-36]
15 | < 5.00 | < 5.00 | < 7.00 | < 5.00 | < 7.00 | < 5.30 | < 6.00 | < 7.00 | < 8.00 | < 7.00 |  |  |  |  |  | C=CC1CC1(NC(=O)Nc1cc(F)c(Oc2ccnc3cc(OC)c(C(N)=O)cc23)c(F)c1Cl)C(=O)NC1CC1 (stereo not shown) [III-37]
16 | < 5.00 | < 5.00 | < 7.00 | < 5.00 | < 7.00 | < 5.30 | < 6.00 | < 7.00 | < 8.00 | < 7.00 |  |  |  |  |  | COc1cc2nccc(Oc3c(F)cc(NC(=O)NC(C)C(F)(F)F)c(Cl)c3F)c2cc1C(N)=O (stereo not shown) [III-38]
17 | < 5.00 | < 5.00 | < 7.00 | < 5.00 | < 7.00 | < 5.30 | < 6.00 | < 7.00 | < 8.00 | < 7.00 |  |  |  |  |  | COc1cc2nccc(Oc3c(F)cc(NC(=O)NC4(C(F)(F)F)CC4)c(Cl)c3F)c2cc1C(N)=O [III-39]
18 | < 5.00 | < 5.00 | < 7.00 | < 5.00 | < 7.00 | < 5.30 | < 6.00 | < 7.00 | < 8.00 | < 7.00 |  |  |  |  |  | COc1cc2nccc(Oc3c(F)cc(NC(=O)NC4CC4)c(OC)c3F)c2cc1C(N)=O [III-40]
19 | < 5.00 | < 5.00 | < 7.00 | < 5.00 | < 7.00 | < 5.30 | < 6.00 | < 7.00 | < 8.00 | < 7.00 |  |  |  |  |  | COc1cc2nccc(Oc3c(F)cc(NC(=O)NC4CC4)c(Cl)c3OC)c2cc1C(N)=O [III-41]
20 | < 5.00 | < 5.00 | < 7.00 | < 5.00 | < 7.00 | < 5.30 | < 6.00 | < 7.00 | < 8.00 | < 7.00 |  |  |  |  |  | COc1cc2nccc(Oc3c(F)cc(NC(=O)NC4CC4)c(Cl)c3OC(C)C)c2cc1C(N)=O [III-42]
21 | < 5.00 | < 5.00 | < 7.00 | < 5.00 | < 7.00 | < 5.30 | < 6.00 | < 7.00 | < 8.00 | < 7.00 |  |  |  |  |  | [2H]C([2H])([2H])Oc1c(Cl)c(NC(=O)NC2CC2)cc(F)c1Oc1ccnc2cc(OC)c(C(N)=O)cc12 [III-43]
22 | < 5.00 | < 5.00 | < 7.00 | < 5.00 | < 7.00 | < 5.30 | < 6.00 | < 7.00 | < 8.00 | < 7.00 |  |  |  |  |  | COc1cc2nccc(Oc3c(F)cc(NC(=O)NC4CC4)c(Cl)c3OCC(F)F)c2cc1C(N)=O [III-44]
23 | < 5.00 | < 5.00 | < 7.00 | < 5.00 | < 7.00 | < 5.30 | < 6.00 | < 7.00 | < 8.00 | < 7.00 |  |  |  |  |  | COc1cc2nccc(Oc3c(F)cc(NC(=O)NC4CC4)c(Cl)c3OC3CC3)c2cc1C(N)=O [III-45]
24 | < 5.00 | < 5.00 | < 7.00 | < 5.00 | < 7.00 | < 5.30 | < 6.00 | < 7.00 | < 8.00 | < 7.00 |  |  |  |  |  | COc1cc2nccc(Oc3c(F)cc(NC(=O)NC4CC4)c(N(C)C)c3F)c2cc1C(N)=O [III-46]
25 | < 5.00 | < 5.00 | < 7.00 | < 5.00 | < 7.00 | < 5.30 | < 6.00 | < 7.00 | < 8.00 | < 7.00 |  |  |  |  |  | COc1cc2nccc(Oc3c(F)cc(NC(=O)NC4CC4)c(Cl)c3OCC(F)(F)F)c2cc1C(N)=O [III-47]

From patent US12071408B2, “Multi-targeted tyrosine kinase inhibitors effective in antitumor uses” (Shanghai AB PharmaTech Ltd., priority 2021, dated 2024)
